From US12485147B2, “Method for producing cell mass including pituitary tissue, and cell mass thereof” (SUMITOMO CHEMICAL COMPANY, LIMITED, priority 2017, dated 2025)

Assays:
Assay type in all cases: cell-based
[1] = tested on: Human ES cells (KhES-1 strain); assay: Addition conditions of Wnt signal transduction pathway inhibiting substance in production of cell mass containing pituitary tissue; bright field observation; details: day 28; for size and condition of cell mass: 2 μM IWP-2, 5 μM KY02111, 1 μM XAV939, 1 μM IWR1e; for nonneural epithelial structure on surface of cell mass: IWP-2 2 μM, KY02111 5 μM, C-59 500 nM, LGK974 5 μM, XAV939 1 μM, IWR1-endo 1 μM added at start, with SB-431542, BMP4, SAG
Description: (§1) Human ES cells (KhES-1 strain) were cultured under feeder-free conditions according to the method described in Scientific Reports, 4, 3594 (2014). As the feeder-free medium, StemFit medium was used and, as the feeder-free scaffold, Laminin 511-E8 was used.
(§2) Specific maintenance culturing operation was performed in the same manner as in Example 1.
Thereafter, suspension culturing in a 96 well plate was performed under conditions similar to those in Example 1 except that the kind or the presence or absence of the Wnt signal transduction pathway inhibiting substance to be added at the start of suspension culturing was changed. As the Wnt signal transduction pathway inhibiting substances, IWP-2, C-59 (manufactured by Cayman Chemicals, 500 nM), LGK974 (manufactured by Cayman Chemicals, 5 μM) which are PORCN inhibitors; XAV939 (manufactured by Cayman Chemicals, 1 μM), IWR1-endo (manufactured by Merck Millipore, 1 μM) which are TANK inhibitors, and KY02111 (manufactured by Cayman Chemicals, 5 μM) whose action mechanism has not been reported were added at the start of the suspension culturing, and the condition with the addition of DMSO alone as a control of no addition of a Wnt signal transduction pathway inhibiting substance was performed.
A serum-free medium not containing Y27632 and containing each Wnt signal transduction pathway inhibiting substance, SB-431542, BMP4, and SAG was added at 100 μl per well on day 2 from the start of suspension culturing. BMP4 was added at 3 nM to the medium so that the final concentration in the well would be 1.5 nM, and SAG was added at 4 μM to the medium so that the final concentration in the well would be 2 μM.
A half amount of the medium was changed with a serum-free medium not containing Y27632 or BMP4 and containing each Wnt signal transduction pathway inhibiting substance, SB-431542 and SAG on days 6, 10, 13, 17, 21, 24 from the start of suspension culturing. In addition to the above-mentioned conditions, the condition in which neither SB431542 nor a Wnt signal transduction pathway inhibiting substance is added during suspension culturing was also performed.
Bright field observation was performed using an inverted microscope (manufactured by KEYENCE CORPORATION, BIOREVO) on day 28 from the start of suspension culturing (FIGS. 7A-H).

[2] = tested on: Human iPS cells (HC-6 #10 strain); assay: Cell mass from human iPS cells using Wnt signal transduction pathway activating substance (CHIR99021) and inhibiting substance in combination; bright field observation and immunostaining
Description: Human iPS cells (HC-6 #10 strain, obtained from RIKEN) were cultured under feeder-free conditions according to the method described in Scientific Reports, 4, 3594 (2014). As the feeder-free medium, StemFit medium was used and, as the feeder-free scaffold, Laminin 511-E8 was used. Specific maintenance culturing operation was performed in the same manner as in Example 1. The thus-prepared subconfluent human iPS cells were washed with PBS, subjected to an enzyme treatment using Accumax, a serum-free medium for differentiation induction was added, and the cells were scraped from the surface of the culture dish by using a cell scraper and dispersed into single cells by pipetting. Thereafter, the aforementioned human ES cells dispersed into single cells were suspended in 100 μl of a serum-free medium at 9×10^3 cells per well of a non-cell-adhesive 96-well culture plate (PrimeSurface […]-bottom plate, manufactured by SUMITOMO BAKELITE), and cultured in suspension under the conditions of 37° C., 5% CO2. As the serum-free medium ([…]) therefor, a serum-free medium which is a 1:1 mixture of F-12+Glutamax medium (manufactured by Thermo Fisher Scientific) and IMDM+Glutamax medium (manufactured by Thermo Fisher Scientific) supplemented with 5% Knockout Serum Replacement (manufactured by Thermo Fisher Scientific), 450 μM 1-monothioglycerol (manufactured by Wako Pure Chemical Industries, Ltd.), 1× Chemically defined lipid concentrate (manufactured by Thermo Fisher Scientific), 50 unit/ml penicillin-50 μg/ml streptomycin (manufactured by Nacalai Tesque) was used. At the time of the start of suspension culturing (day 0 from the start of suspension culturing, start of step 1), Y27632 (final concentration 20 μM), SB-431542 (TGFβ signal transduction pathway inhibiting substance, manufactured by Wako Pure Chemical Industries, Ltd., 1 μM), and IWP-2 (Wnt signal transduction pathway inhibiting substance, manufactured by Tocris Bioscience, 2 μM) were added to the aforementioned serum-free medium. In addition, conditions in which CHIR99021 (manufactured by Cayman Chemical) is added at 300 nM, 1 μM, 3 μM as a Wnt signal transduction pathway activating substance, and conditions in which DMSO alone is added as a control of no addition were set, totaling in 4 conditions. In the present Example, CHIR99021 is sometimes referred to as CHIR. A serum-free medium not containing Y27632 and containing SB-431542, IWP-2, BMP4 (BMP signal transduction pathway activating substance) and CHIR99021 under each condition set was added at 100 μl per well on day 2 from the start of suspension culturing. BMP4 was added at 3 nM to the medium so that the final concentration in the well would be 1.5 nM. As a method for inducing cell mass containing nonneural epithelium and placode, a half amount of the medium was changed with a serum-free medium not containing Y27632 or BMP4, and containing IWP-2, SB-431542, K02288 (BMP signal transduction pathway inhibiting substance, manufactured by AdooQ Bioscience), FGF2-TS (FGF signal transduction pathway activating substance, manufactured by HumanZyme) and Heparin Sodium (manufactured by FUJIFILM Wako Pure Chemical Corporation) on day 3 from the start of suspension culturing. K02288, FGF2, and Heparin Sodium were respectively added at 2 μM, 40 ng/ml, and 20 μg/ml to the medium so that the final concentration in the well would be respectively 1 μM, 20 ng/ml, and 10 μg/ml. A half amount of the medium was changed on day 6 and day 10 from the start of suspension culturing. On day 13 from the start of suspension culturing, bright field observation was performed under an inverted microscope (FIGS. 11A-D). […] The above-mentioned cell masses on day 13 of the culturing were fixed by a method similar to that in Example 1 to prepare cryosections. […]

[3] = tested on: Human ES cells (KhES-1 strain); assay: Effect of compound treatment before differentiation induction in production of cell mass containing pituitary tissue; bright field observation; details: pre-treatment with 5 μM SB-431542 alone; day 28
Description: Human ES cells (KhES-1 strain) were cultured under feeder-free conditions according to the method described in Scientific Reports, 4, 3594 (2014). As the feeder-free medium, StemFit medium was used and, as the feeder-free scaffold, Laminin 511-E8 was used. Specific maintenance culturing operation was performed in the same manner as in Example 1. As a pre-treatment for differentiation induction of the cultured cells, cells under 4 conditions were maintenance cultured under conditions in which, condition in which nothing is simultaneously added with medium change with […] medium (Control), conditions in which 300 nM SAG alone is added (+300 nM SAG), conditions in which 5 μM SB-431542 alone is added (+5 μM SB-431542), and conditions in which SAG and SB431542 are simultaneously added (+SAG/SB) at 6 days after seeding. The next day of the above-mentioned treatment, human ES cells under 4 conditions that reached subconfluence were each subjected to differentiation induction by suspension culturing into a cell mass containing pituitary tissue according to the method described in Example 1. Bright field observation was performed under an inverted microscope on day 28 from the start of suspension culturing (FIGS. 6A-D).

[4] = tested on: Human ES cells (KhES-1 strain); assay: TGFβ signal transduction pathway inhibitory conditions in production of cell mass containing pituitary tissue; details: IWP-2 added, no TGFβ signal transduction pathway inhibiting substance; day 28
Description: as §1, §2
Thereafter, suspension culturing in a 96 well plate was performed under conditions similar to those in Example 1 except that the concentration and kind of the TGFβ signal transduction pathway inhibiting substance to be added at the start of the suspension culturing are changed. As the TGFβ signal transduction pathway inhibiting substance therefor, SB431542 (1 or 10 μM), A 83-01 (manufactured by Cayman Chemicals, 1 or 10 μM), and RepSox (manufactured by Cayman Chemicals, 1 μM) were added at respective concentration conditions.
Thereafter, a serum-free medium not containing Y27632 and containing IWP-2, each TGFβ signal transduction pathway inhibiting substance, BMP4, and SAG was added at 100 μl per well on day 2 from the start of suspension culturing. BMP4 was added at 3 nM to the medium so that the final concentration in the well would be 1.5 nM, and SAG was added at 4 μM to the medium so that the final concentration in the well would be 2 μM.
A half amount of the medium was changed with a serum-free medium not containing Y27632 or BMP4 and containing IWP-2, each TGFβ signal transduction pathway inhibiting substance, and SAG on days 6, 10, 13, 17, 21, 24 from the start of suspension culturing. In addition to the above-mentioned conditions, the condition in which neither a TGFβ signal transduction pathway inhibiting substance nor IWP-2 is added during suspension culturing, and the condition in which IWP-2 is added and a TGFβ signal transduction pathway inhibiting substance is not added during suspension culturing were also performed.

[5] = 300 nM CHIR vs no addition, day 13

Compound: Oc1nc(-c2ccc(C(F)(F)F)cc2)nc2c1CSCC2 [XAV939]
- size and condition of cell mass [1]: large cell masses in good condition were formed
- nonneural epithelial structure on surface of cell mass [1]: cell masses having a nonneural epithelial structure on the surface were formed

Compound: Cc1c[nH]c(-c2cnc(NCCNc3ccc(C#N)cn3)nc2-c2ccc(Cl)cc2Cl)n1 [CHIR99021]
- neural tissue in the inside [2, 5]: survival of neural tissue in the inside and epithelial formation were promoted
- size of cell mass [2, 5]: larger cell masses were formed
- marker-positive tissue formation (immunostaining) ([2]; 300 nM, 1 μM CHIR (also no addition), day 13): formation of Dlx5, Six1, E-Cadherin, N-Cadherin positive nonneural epithelium or placode precursor tissue
- nonneural epithelium thickening and placode formation ([2]; 1 μM CHIR, day 13): thickening of nonneural epithelium on the outside and formation of placode were suppressed
- formation of nonneural epithelial tissue on surface (bright field) ([2]; 3 μM CHIR99021, day 13): formation of nonneural epithelial tissue on the surface of cell mass is inhibited
- formation of nonneural epithelium (immunostaining) ([2]; 3 μM CHIR, day 13): Formation of nonneural epithelium was not observed
- growth of cell masses (bright field) ([2]; CHIR99021 300 nM, 1 μM, 3 μM in presence of IWP-2, day 13): cell masses grow in a concentration-dependent manner
- level effective for growth of whole cell masses, survival of neural tissue in the inside and promotion of epithelial formation ([2]; in the presence of IWP-2): not more than 3 μM

Compound: COc1ccc(CCC(=O)Nc2nc3ccc(Cl)cc3s2)cc1OC [KY02111]
- size and condition of cell mass [1]: large cell masses in good condition were formed
- nonneural epithelial structure on surface of cell mass [1]: cell masses having a nonneural epithelial structure on the surface were formed

Compound: NC(=O)c1ccc(-c2nc(-c3ccc4c(c3)OCO4)c(-c3ccccn3)[nH]2)cc1 [SB431542, 4-(5-benzol[1,3]dioxol-5-yl-4-pyridin-2-yl-1H-imidazol-2-yl)-benzamide]
- cell mass formation [3]: larger cell masses containing pituitary tissues were formed
- nonneural epithelial tissue on surface of cell mass ([1]; SB431542 added, no Wnt signal transduction pathway inhibiting substance): nonneural epithelial tissue was not formed on the surface of the cell masses

Compound: Cc1cc(-c2ncc(CC(=O)Nc3ccc(-c4cnccn4)cn3)cc2C)ccn1 [LGK974]
- nonneural epithelial structure on surface of cell mass [1]: cell masses having a nonneural epithelial structure on the surface were formed

Compound: Cc1cc(-c2ccc(CC(=O)Nc3ccc(-c4cccnc4)cc3)cc2)ccn1 [C59]
- nonneural epithelial structure on surface of cell mass [1]: cell masses having a nonneural epithelial structure on the surface were formed

Compound: Cc1ccc2nc(NC(=O)CSc3nc4c(c(=O)n3-c3ccccc3)SCC4)sc2c1 [IWP-2]
- size and condition of cell mass [1]: large cell masses in good condition were formed
- nonneural epithelial structure on surface of cell mass [1]: cell masses having a nonneural epithelial structure on the surface were formed
- mesenchymal cell between outer nonneural epithelial tissue and inner neuroepithelial tissue [4]: a mesenchymal cell could not be confirmed
- nonneural epithelial structure on surface of cell mass [4]: a nonneural epithelial structure was formed on the surface of the cell mass
- size of cell mass [4]: the formed cell mass was small

Compound: O=C(Nc1cccc2cccnc12)c1ccc(N2C(=O)[C@@H]3[C@H](C2=O)[C@@H]2C=C[C@H]3C2)cc1 [IWR1-endo]
- size and condition of cell mass [1]: large cell masses in good condition were formed
- nonneural epithelial structure on surface of cell mass [1]: cell masses having a nonneural epithelial structure on the surface were formed
